Reference: patent US8871288B2, “Aromatic neomenthylamides as flavoring substances” (Symrise AG, priority 2007, dated 2014)

Legend:
[1] = cited from earlier work; for sensorial impression: prior art (US 2004/0202760, US 2004/0202619, US 2006/057268, 2006/068071); for effect in the oral cavity: known naturally occurring alkamides
[2] = Flavor impression of the individual compounds; assay type: in vivo; conditions: tasting of the compound as such
[3] = Flavor comparison in American beef bouillon base with MSG, panel of trained testers (FIG. 1); assay type: in vivo; conditions: 5 ppm of 1:1 mixture in American beef bouillon base vs base with 0.05% by weight MSG
Method: This is also shown by the spider diagram which is appended as FIG. 1 and in which an American beef bouillon as a base is compared (i) to a base of the type to which 5 ppm of a 1:1 mixture of benzo[1,3]dioxol-5-carboxylic acid ((1S,2S,5R)-2-isopropyl-5-methylcyclohexyl)amide (3) and benzo[1,3]dioxol-5-carboxylic acid ((1R,2R,5S)-2-isopropyl-5-methylcyclohexyl)amide (4) are added and (ii) to a base of the type to which 0.05% by weight of MSG (sodium glutamate) is added.
The flavor of a 0.5% American beef extract as a base (solid, light line) was compared, based on a tasting performed by a panel of trained testers, with the flavor firstly of a base of this type to which 5 ppm of a mixture of benzo[1,3]dioxol-5-carboxylic acid ((1S,2S,5R)-2-isopropyl-5-methylcyclohexyl)amide (3) and benzo[1,3]dioxol-5-carboxylic acid ((1R,2R,5S)-2-isopropyl-5-methylcyclohexyl)amide (4) were added (solid, dark line), and secondly of a base of this type to which 0.05% by weight of MSG was added (dotted line).
The testers judged the […] of the specified types of flavor in each case by awarding scores on a scale of from 0 (no corresponding flavor) to 6 (very strong corresponding flavor). The average values of the respective scores are shown.

[4] = Panel tasting, green tea drink (Application Example 11); assay type: in vivo; conditions: 0.004% by weight of a 1% solution in propylene glycol in green tea drink, sterilized at 118° C.
Method: The green tea concentrate is mixed with a 1% solution of a 1:1 mixture of the compounds (3)+(4) in propylene glycol. Afterwards, demineralized water is poured in and the mixture is again thoroughly stirred. Then the product is filtered, packed ready for consumption and sterilized at 118° C.

## CC/C=C\CC/C=C/C(=O)NCC [N-ethyl-E2,Z6-nonadienamide]
[1]
  sensorial impression: MSG-like effect

## COC(=O)c1ccc(C(=O)N[C@H]2C[C@H](C)CC[C@H]2C(C)C)cc1 [(1), N-((1S,2S,5R)-2-isopropyl-5-methylcyclohexyl)terephthalic acid methyl ester]
[2]
  flavor impression: umami flavor without very bitter accompanying notes

## CC(C)=CCCC(C)=CCNC(=O)C1CC1 [N-3,7-dimethyl-2,6-octadienyl cyclopropylcarboxamide]
[1]
  sensorial impression: salt and umami intensifier

## C/C=C/C=C\CC/C=C/C(=O)NCC(C)C [spilanthol]
[1]
  effect in the oral cavity: a salivatory and tingling effect, a long-lasting and numbing effect in the oral cavity

## COC(=O)c1ccc(C(=O)N[C@@H]2C[C@@H](C)CC[C@@H]2C(C)C)cc1 [(2), N-((1R,2R,5S)-2-isopropyl-5-methylcyclohexyl)terephthalic acid methyl ester]
[2]
  flavor impression: umami flavor without very bitter accompanying notes

## CC(C)[C@@H]1CC[C@@H](C)C[C@@H]1NC(=O)Cc1ccc2c(c1)OCO2 [(5), 2-benzo[1,3]dioxol-5-yl-N-((1S,2S,5R)-2-isopropyl-5-methylcyclohexyl)acetamide]
[2]
  flavor impression: in addition to an umami flavor, a slightly salty note

## CC/C=C\CC/C=C/C(=O)NC1CC1 [N-cyclopropyl-E2,Z6-nonadienamide]
[1]
  sensorial impression: MSG-like effect

## CC(C)[C@H]1CC[C@H](C)C[C@H]1NC(=O)c1ccc2c(c1)OCO2 [(4), benzo[1,3]dioxol-5-carboxylic acid ((1R,2R,5S)-2-isopropyl-5-methylcyclohexyl)amide]
[2]
  flavor impression: very strong umami flavor

## CC(C)[C@H]1CC[C@H](C)C[C@H]1NC(=O)Cc1ccc2c(c1)OCO2 [(6), 2-benzo[1,3]dioxol-5-yl-N-((1R,2R,5S)-2-isopropyl-5-methylcyclohexyl)acetamide]
[2]
  flavor impression: in addition to an umami flavor, a slightly salty note

## CC(C)[C@@H]1CC[C@@H](C)C[C@@H]1NC(=O)c1ccc2c(c1)OCO2 [(3), benzo[1,3]dioxol-5-carboxylic acid ((1S,2S,5R)-2-isopropyl-5-methylcyclohexyl)amide]
[2]
  flavor impression: very strong umami flavor

## CCCCC/C=C/C=C/C(=O)NCC(C)C [pellitorine]
[1]
  effect in the oral cavity: a salivatory and tingling effect, a long-lasting and numbing effect in the oral cavity

## Benzo[1,3]dioxole-5-carboxylic acid((1S,2S,5R)-2-isopropyl-5-methylcyclohexyl)amide (3)/benzo[1,3]dioxole-5-carboxylic acid((1R,2R,5S)-2-isopropyl-5-methylcyclohexyl)amide (4) [1:1 mixture of the compounds (3)+(4)]
[3]
  flavor compared to other umami-tasting compounds and to sodium glutamate (MSG): clear umami flavor which is very similar to sodium glutamate (MSG)
[4]
  taste compared to the non-aromatized green tea base: clearly preferable

## CCCCC/C=C\CC/C=C/C(=O)NCC [N-ethyl-E2,Z6-dodecadienamide]
[1]
  sensorial impression: MSG-like effect
